# Data taken from patent US8039430B2 (University of Wollongong, priority 2005, dated 2011).
# Read-outs that look alike come from different tables or passages of the source.
# How the values were obtained:
# [1] = system: Staphylococcus aureus strain ATCC 6538P; experiment: Antibacterial screening (MIC) of compounds of Example 2, S. aureus, Mueller-Hinton broth; assay type: cell-based; conditions: for MIC: Staphylococcus aureus, ATCC6538P, read-out: Antibacterial activity μg/mL, S.a
# Method: Antibacterial Screening Methodology for Compounds of Example 2
# (§1) • All assays used the Staphylococcus aureus strain ATCC 6538P. • Assays described in Chapter 5 additionally used the vancomycin-resistant enterococci and vancomycin-sensitive enterococci strains Ef243, Ef449, Ef820 and Ef487. Culture Media • Mueller-Hinton Broth Medium (MHB): MHB (Oxoid CM405) was prepared with final concentrations of […] MgCl2 and 2 μg/mL CaCl2. Culture medium was pre-warmed for approximately 2-3 h at 37° C. before use. • Mueller-Hinton Agar Medium (MHA): MMB containing 1.5% Agar (Merck Agar 1.01614). Maintenance of Bacteria • From a thawed cryovial, the bacteria was streaked onto MHA and the plate incubated overnight at 37° C. • From this plate, 10 cryovials were prepared by looping several colonies into 0.5 mL of 20% glycerol solution. The cryovials were immediately stored at −140° C. Preparation of Seed Cultures • A cryovial was removed from −140° C. storage and thawed at room temperature. • An MHA plate was streaked with a loopful of bacterial suspension and incubated overnight at 37° C. to create a parent plate (P1). • A daughter plate (D1) was streaked from the parent plate and incubated overnight at 37° C. […] The second parent plate (P2) was used to generate two additional daughter plates using the procedure outlined above before being discarded. • Cryovials were used twice to prepare parent plates (P1 and P2) before being discarded. […] A vancomycin control set (triplicate) and a compound negative control set (triplicate) were also included on each plate (FIG. 1). • The inoculated culture medium was incubated at 37° C. for 30 min, with shaking at 130 rpm. • Using a multichannel pipette, the contents of the first row were mixed before 50 μL was transferred to the second row. The pipette tips were changed and the process repeated by 50 μL of the mixed broth solutions in the second row being transferred to the third row. This process was repeated until the last row contained either the diluted test compound or a control (vancomycin or compound-negative). […] Antibacterial Testing of Compounds of Example 2 Introduction
# (§2) The specific testing procedures and protocols are outlined in the section “Antibacterial Screening Methodology for the Compounds of Example 2”.
# The antibacterial activity results are measured by minimum inhibitory concentration (MIC), which is the lowest concentration of compound necessary to prevent bacterial growth.
# E.f987 = experiment: Antibacterial screening (MIC) of compounds of Example 2, E.f987; assay type: cell-based, Enterococcus faecium; conditions: for MIC: Enterococcus faecium, read-out: Antibacterial activity μg/mL, E.f987
# E.f243 = experiment: Antibacterial screening (MIC) of compounds of Example 2, E.f243; assay type: cell-based, Enterococcus faecium; conditions: for MIC: Enterococcus faecium, read-out: Antibacterial activity μg/mL, E.f243
# Method: as §1, §2
# (§3) Vancomycin was used as the standard/control.
# E.f820 = experiment: Antibacterial screening (MIC) of compounds of Example 2, E.f820; assay type: cell-based, Enterrococci faecium; conditions: for MIC: read-out: Antibacterial activity μg/mL, E.f820
# Method: as §1, §2, §3
# E.f449 = experiment: Antibacterial screening (MIC) of compounds of Example 2, E.f449; assay type: cell-based, Enterococcus faecium; conditions: for MIC: Enterococcus faecium, read-out: Antibacterial activity μg/mL, E.f449
# Method: as §1, §2, §3
# [2] = Example 2 compounds (linear cationic peptides), S. aureus, vancomycin-susceptible strain
# [3] = Example 2 compounds, enterococci strain E.f987
# [4] = Example 2 compounds, enterococci strain E.f243
# [5] = Example 2 compounds, fully vancomycin-resistant strain E.f820
# [6] = Example 2 compounds, enterococci strain E.f449
Compound,"MIC [1, 2]",MIC (E.f987; [3]),MIC (E.f243; [4]),MIC (E.f820; [5]),MIC (E.f449; [6]),further results
"C=CCOc1ccc(C[C@H](NC(=O)[C@@H](CCCNC(=N)N)NC(=O)COc2ccc3ccccc3c2-c2c(O)ccc3ccccc23)C(=O)OC)cc1.Cl (atropisomer, axis not shown) [Compound 121, Methyl(2S,5R)-2-allyloxybenzyl-3,6-diaza-8-(2-[2′-hydroxy-{1,1′}-(S)-binaphthalen-2-yloxy])-5-(3-[guanidino]propyl)-4,7-dioxooctanoate]",7.8 µg/mL,> 125 µg/mL,125 µg/mL,125 µg/mL,125 µg/mL,–
"CCCOc1ccc2ccccc2c1-c1c(OCC(=O)N[C@H](CCCNC(=N)N)C(=O)Nc2cccc(C(=O)NO)c2)ccc2ccccc12.Cl (atropisomer, axis not shown) [Compound 164]",7.8 µg/mL,> 125 µg/mL,> 125 µg/mL,> 125 µg/mL,> 125 µg/mL,–
"C=CCOc1ccc2ccccc2c1-c1c(OCC(=O)N[C@H](CCCCN)C(=O)N[C@H](CCCNC(=N)N)C(=O)N[C@@H](CC=C)C(=O)OCc2ccccc2)ccc2ccccc12.Cl.Cl (atropisomer, axis not shown) [Compound 132]",3.9 µg/mL,62.5 µg/mL,31.3 µg/mL,31.3 µg/mL,31.3 µg/mL,–
"C=CC[C@H](NC(=O)[C@H](CCCCN)NC(=O)[C@H](Cc1ccc(-c2c3ccccc3cc3ccccc23)cc1)NC(C)=O)C(=O)OC.Cl [Compound 118, Methyl(2S,5S,8S)-2-allyl-5-(4-aminobutyl)-8-(4-[9-anthrecenyl]benzyl)-3,6,9-triaza-5-butylamino-4,7,10-trioxoundecanoate hydrochloride]",31.3 µg/mL,> 125 µg/mL,> 125 µg/mL,> 125 µg/mL,> 125 µg/mL,–
"C=CC[C@H](NC(=O)[C@@H](CCCNC(=N)N)NC(=O)[C@H](NCCCC)NC(=O)COc1ccc2ccccc2c1-c1c(OCc2ccccc2)ccc2ccccc12)C(=O)OCc1ccccc1.Cl.Cl [Compound 134, Benzyl(2S,5R,8R)-2-allyl-3,6,9-triaza-11-(2-[2′-benzyloxy-{1,1′}-(S)-binaphthalen-2-yloxy])-8-(butylamino)-5-(3-guanidinopropyl)-4,7,10-trioxoundecanoate dihydrochloride]",–,–,–,–,–,"Antibacterial activity μg/mL, S.a [1, 2]: 3.9 µg/mL; Antibacterial activity μg/mL, E.f987 (E.f987; [3]): 125 µg/mL; Antibacterial activity μg/mL, E.f243 (E.f243; [4]): 62.5 µg/mL; Antibacterial activity μg/mL, E.f820 (E.f820; [5]): 62.5 µg/mL; Antibacterial activity μg/mL, E.f449 (E.f449; [6]): 62.5 µg/mL"
"CCCOc1ccc2ccccc2c1-c1c(OCC(=O)N[C@H](CCCCN)C(=O)N[C@H](CCCNC(=N)N)C(=O)N[C@@H](CCC)C(=O)OCc2ccccc2)ccc2ccccc12.Cl.Cl (atropisomer, axis not shown) [Compound 141, Benzyl(2S,5R,8R)-3,6,9-triaza-8-(4-aminobutyl)-5-(3-guanidinopropyl)-4,7,10-trioxo-2-propyl-11-(2-[2′-3-(propyloxy)-{1,1′}-(S)-binaphthalen-2-yloxy])undecanoate]",3.9 µg/mL,62.5 µg/mL,31.3 µg/mL,31.2 µg/mL,31.3 µg/mL,–
"C=CCOc1ccc2ccccc2c1-c1c(OCC(=O)N[C@H](CCCNC(=N)N)C(=O)Nc2cccc(C(=O)OC)c2)ccc2ccccc12.Cl (atropisomer, axis not shown) [Compound 156, Methyl(3R)-3-(6-(2-[2′-allyloxy-{1,1′}-(S)-binaphthalen-2-yloxy])-1,4-diaza-3-(3-guanidylpropyl)-2,5-dioxohexyl)benzoate hydrochloride]",3.9 µg/mL,62.5 µg/mL,125 µg/mL,62.5 µg/mL,125 µg/mL,–
"C=CCOC(=O)c1cccc(NC(=O)[C@@H](CCCNC(=N)N)NC(=O)COc2ccc3ccccc3c2-c2c(OCC=C)ccc3ccccc23)c1.Cl (atropisomer, axis not shown) [Compound 160, Allyl(3R)-3-(6-(2-[2′-allyloxy-{1,1′}-(S)-binaphthalen-2-yloxy])-1,4-diaza-3-(3-guanidinopropyl)-2,5-dioxohexyl)benzoate hydrochloride]",7.8 µg/mL,125 µg/mL,62.5 µg/mL,62.5 µg/mL,62.5 µg/mL,–
C=CC[C@H](NC(=O)[C@H](CCCCN)NC(=O)[C@H](Cc1ccc(-c2cc3ccccc3c3ccccc23)cc1)NC(C)=O)C(=O)OC.Cl [Compound 119],15.6 µg/mL,> 125 µg/mL,> 125 µg/mL,> 125 µg/mL,> 125 µg/mL,–
"C=CCOc1ccc(C[C@H](NC(=O)[C@@H](CCCNC(=N)N)NC(=O)COc2ccc3ccccc3c2-c2c(OCC=C)ccc3ccccc23)C(=O)OC)cc1.Cl (atropisomer, axis not shown) [Compound 120]",3.9 µg/mL,62.5 µg/mL,62.5 µg/mL,62.5 µg/mL,62.5 µg/mL,–
"C=CC[C@H](NC(=O)[C@@H](CCCNC(=N)N)NC(=O)[C@@H](CCCCN)NC(=O)COc1ccc2ccccc2c1-c1c(O)ccc2ccccc12)C(=O)OCc1ccccc1.Cl.Cl (atropisomer, axis not shown) [Compound 136, Benzyl(2S,5R,8R)-2-allyl-3,6,9-triaza-8-(butylamino)-5-(3-guanidinopropyl)-11-(2-[2′-hydroxy-{1,1′}-(S)-binaphthalen-2-yloxy])-4,7,10-trioxoundecanoate dihydrochloride]",7.8 µg/mL,125 µg/mL,125 µg/mL,62.5 µg/mL,62.5 µg/mL,–
"C=CCOc1ccc2ccccc2c1-c1c(OCC(=O)N[C@H](CCCN)C(=O)Nc2cccc(C(=O)OC)c2)ccc2ccccc12.Cl [Compound 155, Methyl(3R)-3-(6-(2-[2′-allyloxy-{1,1′}-(S)-binaphthalen-2-yloxy])-3-(3-aminopropyl)-1,4-diaza-2,5-dioxohexyl)benzoate hydrochloride]",–,–,–,–,–,"Antibacterial activity μg/mL, S.a [1, 2]: 7.8 µg/mL; Antibacterial activity μg/mL, E.f987 (E.f987; [3]): >125 µg/mL; Antibacterial activity μg/mL, E.f243 (E.f243; [4]): >125 µg/mL; Antibacterial activity μg/mL, E.f820 (E.f820; [5]): 125 µg/mL; Antibacterial activity μg/mL, E.f449 (E.f449; [6]): 125 µg/mL"
"C=CC[C@H](NC(=O)[C@@H](CCCNC(=N)N)NC(=O)[C@@H](CCCCN)NC(=O)[C@H](Cc1ccc(-c2cc3ccccc3c3ccccc23)cc1)NC(C)=O)C(=O)OCc1ccccc1.Cl.Cl [Compound 140, Benzyl(2S,5R,8R,11S)-2-allyl-8-(4-aminobutyl)-3,6,9,12-tetraaza-5-(3-guanidinopropyl)-4,7,10,13-tetraoxo-11-(4-[9-phenanthrenyl]benzyl)tetradecanoate]",–,–,–,–,–,MIC [1]: 7.8 µg/mL; MIC (E.f987): > 125 µg/mL; MIC (E.f243): > 125 µg/mL; MIC (E.f820): > 125 µg/mL; MIC (E.f449): > 125 µg/mL
"C=CC[C@H](NC(=O)[C@@H](CCCNC(=N)N)NC(=O)[C@@H](CCCCN)NC(=O)COc1ccc2ccccc2c1-c1c(OCCCc2ccccc2)ccc2ccccc12)C(=O)OCc1ccccc1.Cl.Cl (atropisomer, axis not shown) [Compound 137]",3.9 µg/mL,62.5 µg/mL,62.5 µg/mL,31.3 µg/mL,31.3 µg/mL,–
"C=CC[C@H](NC(=O)[C@@H](CCCNC(=N)N)NC(=O)[C@@H](CCCCN)NC(=O)[C@H](Cc1ccc(-c2c3ccccc3cc3ccccc23)cc1)NC(C)=O)C(=O)OCc1ccccc1.Cl.Cl [Compound 139, Benzyl(2S,5R,8R,11S)-2-allyl-8-(4-aminobutyl)-11-(4-[9-anthracenyl]benzyl)-3,6,9,12-tetraaza-5-(3-guanidinopropyl)-4,7,10,13-tetraoxotetradecanoate]",15.6 µg/mL,> 125 µg/mL,> 125 µg/mL,> 125 µg/mL,> 125 µg/mL,–
